According to patent US8354419B2, “Benzimidazole analogues for the treatment or prevention of flavivirus infections” (Vertex Pharmaceuticals Incorporated, priority 2009, dated 2013):

system: HCV (Ib) RNA replication; experiment: Cell-based luciferase reporter HCV (1b) RNA replication assay (replicon cell lines Huh-7 5.2 and ET); parameters: species or system Hepatitis C virus; settings: Hepatitis C virus, Huh-7, 96 h, HCV 1b genotype replicon, luciferase readout, 4 days incubation; read-out: EC50_1b
Method in brief: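 Compounds were tested at eleven concentrations in duplicate over 4 days at 37 °C, 5% CO2. The cells were luciferase-reporter HCV 1b replicon lines 5.2 (NS5A adaptive mutation) or ET (NS4B mutation). Luminescence of lysates was measured, and IC50s were derived by nonlinear curve fitting.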

`COC(=O)N(C)[C@H](C(=O)N1C[C@@H](C)C[C@H]1c1nc2cc(-c3cc4sc(-c5ccc6[nH]c([C@@H]7C[C@H](C)CN7C(=O)[C@H](C(C)C)N(C)C(=O)OC)nc6c5)cc4s3)ccc2[nH]1)C(C)C` [Compound 260] and `COC(=O)N[C@H](C(=O)N1C[C@@H](C)C[C@H]1c1nc2cc(-c3cc4sc(-c5ccc6[nH]c([C@@H]7C[C@H](C)CN7C(=O)[C@H](C(C)C)N(C)C(=O)OC)nc6c5)cc4s3)ccc2[nH]1)C(C)C` [Compound 264] cannot be ordered by EC50: at most 5 nM for the first, at most 5 nM for the second.

`COC(=O)N[C@H](C(=O)N1C[C@H](C)C[C@H]1c1nc2cc(-c3ccc(-c4ccc5[nH]c([C@@H]6C[C@@H](C)CN6C(=O)[C@@H](NC(=O)OC)C(C)C)nc5c4)c(C)c3)ccc2[nH]1)C(C)C` [Compound 261] and `COC(=O)N[C@H](C(=O)N1C[C@@H](C)C[C@H]1c1nc2cc(-c3ccc(-c4ccc5[nH]c([C@@H]6C[C@H](C)CN6C(=O)[C@@H](NC(=O)OC)C(C)C)nc5c4)c(C(=O)OC)c3)ccc2[nH]1)C(C)C` [Compound 268] cannot be ordered by EC50: at most 5 nM for the first, at most 5 nM for the second.

`COC(=O)N[C@H](C(=O)N1C[C@@H](C)C[C@H]1c1nc2cc(-c3ccc(-c4ccc5[nH]c([C@@H]6C[C@H](C)CN6C(=O)[C@@H](Nc6ncccn6)C(C)C)nc5c4)cc3)ccc2[nH]1)C(C)C` [Compound 262] and `COC(=O)N(C)[C@H](C(=O)N1C[C@@H](C)C[C@H]1c1nc2cc(-c3ccc(-c4ccc5[nH]c([C@@H]6C[C@H](C)CN6C(=O)[C@@H](Nc6ncccn6)C(C)C)nc5c4)cc3)ccc2[nH]1)C(C)C` [Compound 289] cannot be ordered by EC50: at most 5 nM for the first, at most 5 nM for the second.

`COC(=O)N[C@H](C(=O)N1C[C@@H](C)C[C@H]1c1nc2ccc(-c3ccc(-c4ccc(-c5ccc6nc([C@@H]7C[C@H](C)CN7C(=O)[C@@H](NC(=O)OC)C(C)C)[nH]c6c5)cc4)cc3)cc2[nH]1)C(C)C` [Compound 263] and `COC(=O)N[C@H](C(=O)N1C[C@@H](C)C[C@H]1c1nc2ccc(-c3ccc(-c4ccc5nc([C@@H]6C[C@H](C)CN6C(=O)[C@@H](NC(=O)OC)C(C)C)n(C)c5c4)cc3)cc2[nH]1)C(C)C` [Compound 294] cannot be ordered by EC50: at most 5 nM for the first, at most 5 nM for the second.

`COC(=O)N[C@H](C(=O)N1C[C@@H](O)C[C@H]1c1nc2cc(-c3ccc(-c4ccc5[nH]c([C@@H]6C[C@H](O)CN6C(=O)[C@@H](NC(=O)OC)C(C)C)nc5c4)c(C)c3)ccc2[nH]1)C(C)C` [Compound 265] and `COC(=O)N[C@H](C(=O)N1C[C@@H](C)C[C@H]1c1nc2cc(-c3ccc(-c4ccc5nc([C@@H]6C[C@H](C)CN6C(=O)[C@@H](NC(=O)OC)C(C)C)[nH]c5c4)cc3C(=O)O)ccc2[nH]1)C(C)C` [Compound 270] cannot be ordered by EC50: at most 5 nM for the first, 5 to 5000 nM for the second.

`COC(=O)N(C)[C@H](C(=O)N1C[C@@H](C)C[C@H]1c1nc2cc(-c3ccc(-c4ccc5[nH]c([C@@H]6C[C@H](C)CN6C(=O)[C@H](C(C)C)N(C)C(=O)OC)nc5c4)c(C)c3)ccc2[nH]1)C(C)C` [Compound 266] and `COC(=O)N(C)[C@H](C(=O)N1C[C@@H](C)C[C@H]1c1nc2cc(-c3ccc(-c4ccc5[nH]c([C@@H]6C[C@H](C)CN6C(=O)[C@H](C(C)C)N(C)C(=O)OC)nc5c4)c(F)c3)ccc2[nH]1)C(C)C` [Compound 278] cannot be ordered by EC50: at most 5 nM for the first, at most 5 nM for the second.

`COC(=O)N[C@H](C(=O)N1CC[C@H](C)[C@H]1c1nc2cc(-c3ccc(-c4ccc5[nH]c([C@@H]6[C@@H](C)CCN6C(=O)[C@@H](NC(=O)OC)C(C)C)nc5c4)cc3)ccc2[nH]1)C(C)C` [Compound 267] and `COC(=O)N[C@H](C(=O)N1CCC[C@H]1c1nc2cc(-c3ccc(-c4ccc5[nH]c([C@@H]6C[C@H](C)CN6C(=O)[C@@H](NC(=O)OC)C(C)C)nc5c4)cc3)ccc2[nH]1)C(C)C` [Compound 272] cannot be ordered by EC50: at most 5 nM for the first, at most 5 nM for the second.

`COC(=O)N[C@H](C(=O)N1C(C)CC[C@H]1c1nc2cc(-c3ccc(-c4ccc5[nH]c([C@@H]6CCC(C)N6C(=O)[C@@H](NC(=O)OC)C(C)C)nc5c4)cc3)ccc2[nH]1)C(C)C` (stereo partly drawn) [Compound 269] and `COC(=O)N[C@H](C(=O)N1CC(C)(C)C[C@H]1c1nc2cc(-c3ccc(-c4ccc5[nH]c([C@@H]6CC(C)(C)CN6C(=O)[C@@H](NC(=O)OC)C(C)C)nc5c4)cc3)ccc2[nH]1)C(C)C` [Compound 298] cannot be ordered by EC50: at most 5 nM for the first, at most 5 nM for the second.

`COC(=O)N[C@H](C(=O)N1C[C@@H](C)C[C@H]1c1nc2cc(-c3ccc(-c4ccc5nc([C@@H]6CCCN6C(=O)[C@@H](NC(=O)OC)C(C)C)n(C)c5c4)cc3)ccc2[nH]1)C(C)C` [Compound 271] and `COC(=O)N[C@H](C(=O)N1C[C@@H](C)C[C@H]1c1nc2ccc(-c3ccc(-c4ccc5nc([C@@H]6C[C@H](C)CN6C(=O)[C@@H](NC(=O)OC)C(C)C)n(C)c5c4)cc3)cc2n1C)C(C)C` [Compound 293] cannot be ordered by EC50: at most 5 nM for the first, at most 5 nM for the second.

First: CC(C)(C)OC(=O)N1CCC[C@H]1c1nc2cc(N3CCCN(c4ccc5nc([C@@H]6CCCN6C(=O)OC(C)(C)C)[nH]c5c4)CC3)ccc2[nH]1 [Compound 273]
Second: C[C@H]1CN(c2ccc3nc([C@@H]4CCCN4C(=O)OC(C)(C)C)[nH]c3c2)CCN1c1ccc2nc([C@@H]3CCCN3C(=O)OC(C)(C)C)[nH]c2c1 [Compound 275]
The EC50 of the first is higher: over 5000 nM for the first, 5 to 5000 nM for the second. The second is the more potent here.

`COC(=O)N(C)[C@H](C(=O)N1C[C@@H](C)C[C@H]1c1nc2ccc(C#CC#Cc3ccc4nc([C@@H]5C[C@H](C)CN5C(=O)[C@H](C(C)C)N(C)C(=O)OC)[nH]c4c3)cc2[nH]1)C(C)C` [Compound 274] and `COC(=O)N(C)[C@H](C(=O)N1C[C@@H](C)C[C@H]1c1nc2cc(-c3cc(C)c(-c4ccc5[nH]c([C@@H]6C[C@H](C)CN6C(=O)[C@H](C(C)C)N(C)C(=O)OC)nc5c4)cc3C)ccc2[nH]1)C(C)C` [Compound 277] cannot be ordered by EC50: at most 5 nM for the first, at most 5 nM for the second.

`COC(=O)N[C@H](C(=O)N1C[C@@H](C)C[C@H]1c1nc2cc(-c3cc(C)c(-c4ccc5[nH]c([C@@H]6C[C@H](C)CN6C(=O)[C@H](C(C)C)N(C)C(=O)OC)nc5c4)cc3C)ccc2[nH]1)C(C)C` [Compound 276] and `COC(=O)N[C@H](C(=O)N1C[C@@H](C)C[C@H]1c1nc2cc(-c3cc(F)c(-c4ccc5[nH]c([C@@H]6C[C@H](C)CN6C(=O)[C@H](C(C)C)N(C)C(=O)OC)nc5c4)cc3F)ccc2[nH]1)C(C)C` [Compound 281] cannot be ordered by EC50: at most 5 nM for the first, at most 5 nM for the second.

`COC(=O)N(C(C)C)[C@H](C(=O)N1C[C@@H](C)C[C@H]1c1nc2cc(-c3ccc(-c4ccc5nc([C@@H]6C[C@H](C)CN6C(=O)[C@H](C(C)C)N(C(=O)OC)C(C)C)[nH]c5c4)cc3)ccc2[nH]1)C(C)C` [Compound 279] and `COC(=O)N[C@H](C(=O)N1C[C@@H](C)C[C@H]1c1nc2cc(-c3ccc(-c4ccc5nc([C@@H]6C[C@H](C)CN6C(=O)[C@H](C(C)C)N(C(=O)OC)C(C)C)[nH]c5c4)cc3)ccc2[nH]1)C(C)C` [Compound 284] cannot be ordered by EC50: at most 5 nM for the first, at most 5 nM for the second.

`COC(=O)N[C@H](C(=O)N1C[C@@H](C)C[C@H]1c1nc2cc(-c3cc(F)c(-c4ccc5[nH]c([C@@H]6C[C@H](C)CN6C(=O)[C@@H](NC(=O)OC)C(C)C)nc5c4)cc3F)ccc2[nH]1)C(C)C` [Compound 280] and `COC(=O)N(C)[C@H](C(=O)N1C[C@@H](C)C[C@H]1c1nc2cc(-c3cc(F)c(-c4ccc5[nH]c([C@@H]6C[C@H](C)CN6C(=O)[C@H](C(C)C)N(C)C(=O)OC)nc5c4)cc3F)ccc2[nH]1)C(C)C` [Compound 282] cannot be ordered by EC50: at most 5 nM for the first, at most 5 nM for the second.

First: C[C@@H]1CN(c2ccc3nc([C@@H]4CCCN4C(=O)OC(C)(C)C)[nH]c3c2)CCN1c1ccc2nc([C@@H]3CCCN3C(=O)OC(C)(C)C)[nH]c2c1 [Compound 283]
Second: C[C@H]1C[C@@H](c2nc3ccc(-c4ccc(-c5ccc6nc([C@@H]7C[C@H](C)CN7C(=O)OC(C)(C)C)n(C)c6c5)cc4)cc3[nH]2)N(C(=O)OC(C)(C)C)C1 [Compound 292]
The EC50 of the first is higher: over 5000 nM for the first, 5 to 5000 nM for the second. The second is the more potent here.

`COC(=O)N[C@H](C(=O)N1C[C@@H](C)C[C@H]1c1nc2cc(-c3ccc(-c4ccc5[nH]c([C@@H]6C[C@H](C)CN6C(=O)[C@H](C(C)C)N(C)C(=O)OC)nc5c4)cc3F)ccc2[nH]1)C(C)C` [Compound 285] and `COC(=O)N[C@H](C(=O)N1C[C@@H](C)C[C@H]1c1nc2cc(-c3ccc(-c4ccc5[nH]c([C@@H]6C[C@H](C)CN6C(=O)[C@H](C(C)C)N(C)C(=O)OC)nc5c4)c(F)c3)ccc2[nH]1)C(C)C` [Compound 286] cannot be ordered by EC50: at most 5 nM for the first, at most 5 nM for the second.

`COC(=O)N1CCC[C@H]1C(=O)N1C[C@@H](C)C[C@H]1c1nc2cc(-c3ccc(-c4ccc5[nH]c([C@@H]6C[C@H](C)CN6C(=O)[C@@H]6CCCN6C(=O)OC)nc5c4)cc3)ccc2[nH]1` [Compound 287] and `COC(=O)N[C@H](C(=O)N1C[C@@H](C)C[C@H]1c1nc2cc(-c3ccc(-c4ccc5[nH]c([C@@H]6C[C@H](C)CN6C(=O)[C@@H]6CCCN6C(=O)OC)nc5c4)cc3)ccc2[nH]1)C(C)C` [Compound 288] cannot be ordered by EC50: at most 5 nM for the first, at most 5 nM for the second.

`COC(=O)N(C)[C@H](C(=O)N1C[C@@H](C)C[C@H]1c1nc2cc(-c3csc4c(-c5ccc6[nH]c([C@@H]7C[C@H](C)CN7C(=O)[C@H](C(C)C)N(C)C(=O)OC)nc6c5)csc34)ccc2[nH]1)C(C)C` [Compound 290] and `COC(=O)N(C)[C@H](C(=O)N1C[C@@H](C)C[C@H]1c1nc2ccc(-c3ccc(-c4ccc5nc([C@@H]6C[C@H](C)CN6C(=O)[C@H](C(C)C)N(C)C(=O)OC)n(C)c5c4)cc3)cc2[nH]1)C(C)C` [Compound 296] cannot be ordered by EC50: at most 5 nM for the first, at most 5 nM for the second.

`C[C@H]1C[C@@H](c2nc3ccc(-c4ccc(-c5ccc6nc([C@@H]7C[C@H](C)CN7C(=O)OC(C)(C)C)n(C)c6c5)cc4)cc3n2C)N(C(=O)OC(C)(C)C)C1` [Compound 291] and `COC(=O)N(C)[C@H](C(=O)N1C[C@@H](C)C[C@H]1c1nc2ccc(-c3ccc(-c4ccc5nc([C@@H]6C[C@H](C)CN6C(=O)[C@H](C(C)C)N(C)C(=O)OC)n(C)c5c4)cc3)cc2n1C)C(C)C` [Compound 295] cannot be ordered by EC50: 5 to 5000 nM for the first, at most 5 nM for the second.

`CCN(C(=O)OC)[C@H](C(=O)N1C[C@@H](C)C[C@H]1c1nc2ccc(-c3ccc(-c4ccc5[nH]c([C@@H]6C[C@H](C)CN6C(=O)[C@@H](NC(=O)OC)C(C)C)nc5c4)cc3)cc2[nH]1)C(C)C` [Compound 297] was tested, and the EC50 was at most 5 nM.
